Assay results as given in PMC11292009, “Mapping protein binding sites by photoreactive fragment pharmacophores” (Communications Chemistry, 2024).

Tested on: T1, Kras G12D protein / SOS1 exchange domain
T1 construct: Cytoskeleton, Inc. (SOS1 exchange domain only) GE02
Assay: Kras-SOS exchange assay (MANT-GDP)
Assay type: biochemical
Details: for Relative fluorescence intensity: PhP072 500 uM, no irradiation
Protocol: MANT-GDP loading assay: Kras^G12D protein was first buffer exchanged into low magnesium buffer (20 mM HEPES-NaOH (pH 7.5), 50 mM NaCl, 0.5 mM MgCl2) using a NAP5 column (catalog no.: 17-0583-1, Cytiva). The proteins were then incubated with 20-fold molar excess of N-methylanthraniloyl (MANT)-GDP (catalog no.: 69244, Sigma-Aldrich) in loading buffer (50 mM NaCl, 20 mM HEPES-NaOH [pH 7.5], 0.5 mM MgCl2, 10 mM EDTA, and 1 mM Dithiothreitol (DTT)) in a total volume of 200 μL at 20 °C for 90 min. The reaction was stopped by adding MgCl2 to a final concentration of 10 mM, then incubated at 20 °C for 30 min. The unbound MANT-GDP was removed using the NAP-5 column equilibrated with nucleotide exchange buffer (40 mM HEPES-NaOH (pH 7.5), 50 mM NaCl, 10 mM MgCl2, 2 mM DTT).
MANT-GDP exchange assay: First the MANT-GDP bound Kras G12D protein (in a final 1 μM molar concentration) was preincubated with the inhibitor molecules for 60 min. After the preincubation the samples were exposed to UV light for 10 min with a wavelength of 366 nm. The UV-treated MANT-GDP Kras-inhibitor mix was loaded into a black 384 well microplate. The nucleotide exchange reaction was initiated by adding 100 fold molar excess of GppNHp (catalog no.: G0635, Sigma-Aldrich), a non-hydrolyzable GTP analog and the SOS1 exchange domain (catalog no.: GE02, Cytoskeleton, Inc.) protein in 0.5 μM final concentration. The change in fluorescence intensity was measured every 30 s in room temperature for 60 min on an EnSpire plate reader (PerkinElmer, Inc.). The measured fluorescence values were fitted to a single exponential function by using GraphPad Prism 8 software.

Work on `Cc1ncc(CO)c(CNC(=O)CCC2(C)N=N2)c1O` [PhP072, Cc1ncc(CO)c(c1O)CNC(=O)CCC2(C)N=N2] yielded a Relative fluorescence intensity (0 sec) of 1, a Relative fluorescence intensity (30 sec) of 1.013 and a Relative fluorescence intensity (60 sec) of 0.9959. For the same compound, the Relative fluorescence intensity (90 sec) was 0.9972, the Relative fluorescence intensity (120 sec) was 0.9718 and the Relative fluorescence intensity (210 sec) was 0.9336. The Relative fluorescence intensity (240 sec) was 0.9413, the Relative fluorescence intensity (270 sec) was 0.9207 and the Relative fluorescence intensity (300 sec) was 0.9231. For the same compound, the Relative fluorescence intensity (330 sec) was 0.889, the Relative fluorescence intensity (360 sec) was 0.9144 and the Relative fluorescence intensity (390 sec) was 0.8755. For the same compound, the Relative fluorescence intensity (420 sec) was 0.8829, the Relative fluorescence intensity (450 sec) was 0.8817 and the Relative fluorescence intensity (480 sec) was 0.8573. For the same compound, the Relative fluorescence intensity (510 sec) was 0.8562, the Relative fluorescence intensity (540 sec) was 0.8393 and the Relative fluorescence intensity (570 sec) was 0.8479. It also gave a Relative fluorescence intensity (600 sec) of 0.8268, a Relative fluorescence intensity (630 sec) of 0.8298 and a Relative fluorescence intensity (660 sec) of 0.82. For the same compound, the Relative fluorescence intensity (690 sec) was 0.8367, the Relative fluorescence intensity (720 sec) was 0.8123 and the Relative fluorescence intensity (750 sec) was 0.8188. The Relative fluorescence intensity (780 sec) was 0.7895, the Relative fluorescence intensity (810 sec) was 0.8173 and the Relative fluorescence intensity (840 sec) was 0.8044. It also gave a Relative fluorescence intensity (870 sec) of 0.8078, a Relative fluorescence intensity (900 sec) of 0.796 and a Relative fluorescence intensity (930 sec) of 0.7898. It also gave a Relative fluorescence intensity (960 sec) of 0.7738, a Relative fluorescence intensity (990 sec) of 0.7911 and a Relative fluorescence intensity (1020 sec) of 0.7808. The Relative fluorescence intensity (1050 sec) was 0.7917, the Relative fluorescence intensity (1080 sec) was 0.7685 and the Relative fluorescence intensity (1110 sec) was 0.7829. The Relative fluorescence intensity (1140 sec) was 0.763, the Relative fluorescence intensity (1170 sec) was 0.7869 and the Relative fluorescence intensity (1200 sec) was 0.7802. For the same compound, the Relative fluorescence intensity (1230 sec) was 0.7626, the Relative fluorescence intensity (1260 sec) was 0.7487 and the Relative fluorescence intensity (1290 sec) was 0.7649. The Relative fluorescence intensity (1320 sec) was 0.7515, the Relative fluorescence intensity (1350 sec) was 0.7769 and the Relative fluorescence intensity (1380 sec) was 0.7498. The Relative fluorescence intensity (1410 sec) was 0.7689, the Relative fluorescence intensity (1440 sec) was 0.7375 and the Relative fluorescence intensity (1470 sec) was 0.7324. The Relative fluorescence intensity (1500 sec) was 0.7377, the Relative fluorescence intensity (1530 sec) was 0.7512 and the Relative fluorescence intensity (1560 sec) was 0.7561. For the same compound, the Relative fluorescence intensity (1590 sec) was 0.7642, the Relative fluorescence intensity (1620 sec) was 0.7532 and the Relative fluorescence intensity (1650 sec) was 0.7322. The Relative fluorescence intensity (1680 sec) was 0.7337, the Relative fluorescence intensity (1710 sec) was 0.7447 and the Relative fluorescence intensity (1740 sec) was 0.7262. It also gave a Relative fluorescence intensity (1770 sec) of 0.7004, a Relative fluorescence intensity (1800 sec) of 0.7223 and a Relative fluorescence intensity (1830 sec) of 0.7275. The Relative fluorescence intensity (1860 sec) was 0.7142, the Relative fluorescence intensity (1890 sec) was 0.7142 and the Relative fluorescence intensity (1920 sec) was 0.7251. The Relative fluorescence intensity (1950 sec) was 0.7143, the Relative fluorescence intensity (1980 sec) was 0.7167 and the Relative fluorescence intensity (2010 sec) was 0.7199. It also gave a Relative fluorescence intensity (2040 sec) of 0.7182, a Relative fluorescence intensity (2070 sec) of 0.7197 and a Relative fluorescence intensity (2100 sec) of 0.7234. The Relative fluorescence intensity (2130 sec) was 0.7107, the Relative fluorescence intensity (2160 sec) was 0.709 and the Relative fluorescence intensity (2190 sec) was 0.6857. It also gave a Relative fluorescence intensity (2220 sec) of 0.7212, a Relative fluorescence intensity (2250 sec) of 0.7309 and a Relative fluorescence intensity (2280 sec) of 0.698. For the same compound, the Relative fluorescence intensity (2310 sec) was 0.6941, the Relative fluorescence intensity (2340 sec) was 0.715 and the Relative fluorescence intensity (2370 sec) was 0.7148. The Relative fluorescence intensity (2400 sec) was 0.6907, the Relative fluorescence intensity (2430 sec) was 0.6865 and the Relative fluorescence intensity (2460 sec) was 0.6802. The Relative fluorescence intensity (2490 sec) was 0.7113, the Relative fluorescence intensity (2520 sec) was 0.7022 and the Relative fluorescence intensity (2550 sec) was 0.6719. It also gave a Relative fluorescence intensity (2580 sec) of 0.6958, a Relative fluorescence intensity (2910 sec) of 0.6843 and a Relative fluorescence intensity (2940 sec) of 0.6708. For the same compound, the Relative fluorescence intensity (2970 sec) was 0.6872, the Relative fluorescence intensity (3000 sec) was 0.6826 and the Relative fluorescence intensity (3030 sec) was 0.6877. It also gave a Relative fluorescence intensity (3060 sec) of 0.6798, a Relative fluorescence intensity (3090 sec) of 0.6889 and a Relative fluorescence intensity (3120 sec) of 0.6845. For the same compound, the Relative fluorescence intensity (3150 sec) was 0.6654, the Relative fluorescence intensity (3180 sec) was 0.6759 and the Relative fluorescence intensity (3210 sec) was 0.6861. The Relative fluorescence intensity (3240 sec) was 0.6538, the Relative fluorescence intensity (3270 sec) was 0.6954 and the Relative fluorescence intensity (3300 sec) was 0.6785. For the same compound, the Relative fluorescence intensity (3330 sec) was 0.6776 and the “normalized signal, Kras-SOS exchange (Figure 4c PhP072 irradiation)” value (Php072 500 uM, irradiation, time 0 sec) was 1.
